Reference: patent publication US20170080049A1, “MEDICINE AGAINST GROWTH FAILURE INDUCED BY ADMINISTRATION OF STEROID” (DAIICHI SANKYO COMPANY, LIMITED, priority 2014, published 2017)
Positions of bridges follow the written chain, without caps; N, C: chain ends. Residues, ends and D or L forms follow the SMILES beside them. No end group written: not given here.

Assays:
Format in all cases: in vivo
[1] = tested on: steroid-induced growth failure, male Crlj:WI (Wistar) rat; test: Simultaneous combined administration test of various steroids and CNP derivative (A) in rats (Example 5); settings: for Body length at dissection / Body length, variation from preadministration value (Δ value) / Body weight, variation from preadministration value (Δ value) / Right femur length at dissection / Tail length at dissection / Tail length, variation from preadministration value (Δ value) / Body weight at dissection: 1 mL/kg s.c. once a day 28 days, + medium or + CNP derivative (A) 1 mg/kg, n=5; for Body weight at dissection: 4-week-old male Wistar rat
Description: 0.3 mg/mL solution of dexamethasone (dexamethasone injection “KS”, available from Kyoritsuseiyaku Corporation diluted with saline), prednisolone succinate suspended in 0.1% polysorbate-containing brine (available from Wako Pure Chemical Industries, Ltd., concentration of 5 mg/mL as prednisolone), or betamethasone dipropionate suspended in 0.1% polysorbate-containing brine (available from Wako Pure Chemical Industries, Ltd., concentration of 0.3 mg/mL as betamethasone) was administered to the hypoderm of the back of a 4-week-old male Crlj:WI (Wistar) rat (ten animals for each set of substances) in a volume of 1 mL/kg once a day for 28 days. No substance was administered to the control group (5 animals, Group 1). At the same time, for five of ten animals in each set (Group 2, Group 4, Group 6) a medium (0.03 mol/L acetate buffer (pH 4.0)/1% benzyl alcohol/10% sucrose) and for the remaining five animals (Group 3, Group 5, Group 7) the medium and a 1 mg/mL solution of CNP derivative (A) were administered in combination in the hypoderm of the back in a volume of 1 mL/kg once a day for 28 days. After measuring the body weight, the body length and the tail length under isoflurane anesthesia on the day after the final day of administration, blood was collected from the abdominal aorta and the animal was caused to die, the right femur was extracted and the femur length was measured.

[2] = tested on: dexamethasone-induced rat growth failure model; test: Combined administration study of human-type CNP-53 or various CNP derivatives in dexamethasone-induced rat growth failure model (Example 3); settings: for plasma cholesterol concentration and thymus weight vs single administration group of dexamethasone (in words): combined with dexamethasone, 28 days; for Plasma cholesterol concentration / thymus body weight ratio / thymus weight at dissection: dexamethasone 0.67 mg/mL pump alone or combined with 15 mg/mL pump of the CNP peptide, continuous s.c. 28 days, 5-week-old male Wistar rat, n=5
Description: Osmotic pumps (MINI-OSMOTIC PUMP Model 2004, available from DURECT CORPORATION, flow rate: 0.25 μL/hr, for 28 days) were charged with 0.67 mg/mL solution of dexamethasone (dexamethasone injection “KS”, available from Kyoritsuseiyaku Corporation) and one osmotic pump was embedded in the hypoderm of the back of each 5-week-old male Crlj:WI (Wistar) rat (5 animals/group, Groups 2 to 6, a total of 25 animals). At the same time, one osmotic pump (the same as above) charged with a 15 mg/mL solution of CNP derivative (A) in Group 3, human-type CNP-53 in Group 4, CNP derivative (B) in Group 5 and CNP derivative (C) in Group 6 was embedded in the hypoderm of the back simultaneously. No substance was administered to the normal control group (Group 1, 5 animals). Then the animals were fed for 28 days, and transitions of the body weight, the body length and the tail length were measured. On the final day, the blood was collected from the abdominal aorta and the animals were caused to die under isoflurane anesthesia, and plasma was separated from the collected blood and the cholesterol concentration was determined by using a “LabAssay (trademark) cholesterol” (available from Wako Pure Chemical Industries, Ltd.). After collecting the blood and causing the animals to die, the right femur and thymus were extracted, and the length of the right femur and the weight of the thymus were measured.

[3] = tested on: rat growth failure induced by dexamethasone; test: Action comparing study between CNP derivative (A) and human growth hormone on rat growth failure induced by dexamethasone (Example 6)
Description: Osmotic pumps (MINI-OSMOTIC PUMP Model 2004, available from DURECT CORPORATION, flow rate: 0.25 μL/hr, for 28 days) were charged with a 0.67 mg/mL solution of dexamethasone (dexamethasone injection “KS”, available from Kyoritsuseiyaku Corporation), and one osmotic pump was embedded in the hypoderm of the back of each 4-week-old male Crlj:WI (Wistar) rat (5 animals/group, Group 2 to Group 4, total of 15 animals). For Group 3, a 1 mg/mL solution of CNP derivative (A) (medium: 0.03 mol/L acetate buffer (pH 4.0)/1% benzyl alcohol/10% sucrose), and for Group 4, a 1 mg/mL solution of human-type growth hormone preparation (somatropin BS subcutaneous injection 10 mg “SANDOZ”) diluted with a phosphate buffer was administered to the hypoderm of the back of five rats, respectively, in a volume of 2 mL/kg once a day for 28 days. No substance was administered to the normal control group (5 animals, Group 1). On the final day, after measuring the body weight, the body length and the tail length, the blood was collected from the abdominal aorta and the animal was caused to die under isoflurane anesthesia, the left femur was extracted and the bone length was measured, and then a histopathological specimen of the epiphyseal region was prepared.

[4] = combined with dexamethasone, 28 days
[5] = dexamethasone 0.67 mg/mL pump alone or with CNP derivative (A) or human-type growth hormone 1 mg/mL, 2 mL/kg s.c. once a day 28 days, n=4 or 5

CCC(=O)OCC(=O)[C@@]1(OC(=O)CC)[C@@H](C)C[C@H]2[C@@H]3CCC4=CC(=O)C=C[C@]4(C)[C@@]3(F)[C@@H](O)C[C@@]21C [Betamethasone, betamethasone dipropionate]
Body length at dissection ([1]; betamethasone 0.3 mg/mL): 211 ± 2 mm
Body length, variation from preadministration value (Δ value) ([1]; betamethasone 0.3 mg/mL): (59 ± 5) mm
Body weight, variation from preadministration value (Δ value) ([1]; betamethasone 0.3 mg/mL): (208 ± 10) g
Right femur length at dissection ([1]; betamethasone 0.3 mg/mL): 33.9 ± 0.5 mm
Tail length at dissection ([1]; betamethasone 0.3 mg/mL): 213 ± 4 mm
Tail length, variation from preadministration value (Δ value) ([1]; betamethasone 0.3 mg/mL): (82 ± 3) mm
Body weight at dissection ([1]; betamethasone dipropionate (0.3 mg/mL as betamethasone)): 315 ± 11 g
growth failure in rats by repeated administration of the steroid for 28 days (in words) ([1]; rat, in vivo, sc): induce growth failure

CC[C@H](C)[C@@H]1NC(=O)[C@H](CCCNC(=N)N)NC(=O)[C@H](CC(=O)O)NC(=O)[C@H](CC(C)C)NC(=O)[C@H](CCCCN)NC(=O)[C@H](CC(C)C)NC(=O)CNC(=O)[C@H](Cc2ccccc2)NC(=O)[C@@H](NC(=O)CNC(=O)[C@H](CCCCN)NC(=O)[C@H](CO)NC(=O)[C@H](CC(C)C)NC(=O)CNC(=O)[C@H](CCCCN)NC(=O)[C@H](CCCCN)NC(=O)[C@H](CC(N)=O)NC(=O)[C@H](C)NC(=O)CNC(=O)[C@H](CCCCN)NC(=O)[C@H](Cc2ccc(O)cc2)NC(=O)[C@H](CCCCN)NC(=O)[C@H](CCCNC(=N)N)NC(=O)[C@H](C)NC(=O)[C@H](CC(N)=O)NC(=O)[C@@H]2CCCN2C(=O)[C@H](Cc2c[nH]cn2)NC(=O)[C@H](CCC(=O)O)NC(=O)[C@H](CCC(N)=O)NC(=O)CNC(=O)[C@@H]2CCCN2)CSSC[C@@H](C(=O)O)NC(=O)CNC(=O)[C@H](CC(C)C)NC(=O)CNC(=O)[C@H](CO)NC(=O)[C@H](CCSC)NC(=O)[C@H](CO)NC(=O)CNC1=O [CNP derivative (B), Pro-Gly-CNP-37]
plasma cholesterol concentration and thymus weight vs single administration group of dexamethasone (in words) [2]: a clear difference was not observed
Plasma cholesterol concentration [2]: 64.4 ± 0.8 ^NS mg/dL
thymus body weight ratio [2]: [0.14 ± 0.04%*]
thymus weight at dissection [2]: 0.42 ± 0.14 g

CC[C@H](C)[C@@H]1NC(=O)[C@H](CCCNC(=N)N)NC(=O)[C@H](CC(=O)O)NC(=O)[C@H](CC(C)C)NC(=O)[C@H](CCCCN)NC(=O)[C@H](CC(C)C)NC(=O)CNC(=O)[C@H](Cc2ccccc2)NC(=O)[C@@H](NC(=O)CNC(=O)[C@H](CCCCN)NC(=O)[C@H](CO)NC(=O)[C@H](CC(C)C)NC(=O)CN)CSSC[C@@H](C(=O)N[C@H](C(=O)N[C@@H](CCC(N)=O)C(=O)N[C@@H](CCC(N)=O)C(=O)N[C@@H](CCCNC(=N)N)C(=O)N[C@@H](CCCCN)C(=O)N[C@@H](CCC(=O)O)C(=O)N[C@@H](CO)C(=O)N[C@@H](CCCCN)C(=O)N[C@@H](CCCCN)C(=O)N2CCC[C@H]2C(=O)N2CCC[C@H]2C(=O)N[C@@H](C)C(=O)N[C@@H](CCCCN)C(=O)N[C@@H](CC(C)C)C(=O)N[C@@H](CCC(N)=O)C(=O)N2CCC[C@H]2C(=O)N[C@@H](CCCNC(=N)N)C(=O)O)C(C)C)NC(=O)CNC(=O)[C@H](CC(C)C)NC(=O)CNC(=O)[C@H](CO)NC(=O)[C@H](CCSC)NC(=O)[C@H](CO)NC(=O)CNC1=O [CNP derivative (C), CNP (1-22) Ghrelin (12-28, SEQ ID NO: 8)] (H-GLSKGCFGLKLDRIGSMSGLGCVQQRKESKKPPAKLQPR-OH; disulfide 6-22)
plasma cholesterol concentration and thymus weight vs single administration group of dexamethasone (in words) [2]: a clear difference was not observed
Plasma cholesterol concentration [2]: 59.2 ± 7.4 ^NS mg/dL
thymus body weight ratio [2]: [0.11 ± 0.02% ^NS]
thymus weight at dissection [2]: 0.35 ± 0.06 g

C[C@]12C=CC(=O)C=C1CC[C@@H]1[C@@H]2[C@@H](O)C[C@@]2(C)[C@H]1CC[C@]2(O)C(=O)COC(=O)CCC(=O)O [prednisolone succinate]
Body length at dissection ([1]; prednisolone 5 mg/mL): 209 ± 4 mm
Body length, variation from preadministration value (Δ value) ([1]; prednisolone 5 mg/mL): (58 ± 4) mm
Body weight, variation from preadministration value (Δ value) ([1]; prednisolone 5 mg/mL): (191 ± 14) g
Right femur length at dissection ([1]; prednisolone 5 mg/mL): 33.3 ± 0.3 mm
Tail length at dissection ([1]; prednisolone 5 mg/mL): 206 ± 6 mm
Tail length, variation from preadministration value (Δ value) ([1]; prednisolone 5 mg/mL): (79 ± 9) mm
Body weight at dissection ([1]; prednisolone succinate (5 mg/mL as prednisolone)): 298 ± 14 g
growth failure in rats by repeated administration of the steroid for 28 days (in words) ([1]; s.c. once a day 28 days, body weight gain, body, tail and femur length, p<0.05 or 0.01): induce growth failure

DLRVDTKSRAAWARLLQEHPNARKYKGANKKGLSKGCFGLKLDRIGSMSGLGC (disulfide 37-53) [human-type CNP-53]
plasma cholesterol concentration and thymus weight vs single administration group of dexamethasone (in words) [2]: a clear difference was not observed
Plasma cholesterol concentration [2]: 62.1 ± 2.2 ^NS mg/dL
thymus body weight ratio [2]: [0.11 ± 0.01% ^NS]
thymus weight at dissection [2]: 0.33 ± 0.03 g

human-type growth hormone: human-type growth hormone preparation, existing therapeutic drug for dwarfism
elongation of the body length and the tail length vs dexamethasone-only administration group (in words) [3, 4]: no significant difference
left femur length on the final day vs dexamethasone-only administration group (in words) [3, 4]: No significant difference
Body weight at dissection ([3]; dexamethasone 0.67 mg/mL pump 28 days alone or with CNP derivative (A) or human-type growth hormone 1 mg/mL, 2 mL/kg s.c. once a day 28 days, 4-week-old male Wistar rat, mean ± SD, n=4 or 5): 255 ± 7 g
Body length at dissection [3, 5]: 199 ± 5 mm
Body length, variation from pre-administration value (Δ value) [3, 5]: (44.8 ± 3.7) mm
Body weight, variation from pre-administration value (Δ value) [3, 5]: (149 ± 3) g
Left femur length at dissection [3, 5]: 31.7 ± 0.6 mm
Tail length at dissection [3, 5]: 199 ± 3 mm
Tail length, variation from pre-administration value (Δ value) [3, 5]: (66.8 ± 5.0) mm
growth plate cartilage layer of the epiphyseal region of the left femur (in words) ([3]; histology, toluidine blue (FIG. 5), tendency, combinations compared with dexamethasone only): swelling
